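Test compounds were applied to cells in 96-well plates for 48 hours at 5 doses. Here, GI50 denotes the concentration required for 50% inhibition of growth.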 Active and inactive are the calls of the source. Cut-off read from the data, not from the text of the source: active = GI50 up to about 1.1 µM and inactive = higher. Positions of bridges follow the written chain, without caps; N, C: chain ends. Square brackets hold non-standard residues; d marks the D form. Residues, ends and D or L forms follow the SMILES beside them. Peptide text beside a SMILES is read from it. * marks the point of attachment. ξ: configuration not given here. NMeY = CN[C@@H](Cc1ccc(O)cc1)C(=O)O; Cbz = O=C(OCc1ccccc1)*; ξA = CC(N)C(=O)O

Common to all, as to assay: NCI tumour cell line growth inhibition, 48 h
The test system of test [1] is SF-295.
Test [2] deals with IGROV-1.
The test system of test [3] is 786-0.
Test [4] has as its system U-251.
The subject of test [5] is SR.
For test [6], the system named is OVCAR-5.
The test system of test [7] is HT-29.
Test [8] concerns SN12C.
Test [9] concerns UACC-62.
In test [10] the test system is MCF7.
The test system of test [11] is A549.
The subject of test [12] is HL-60.
Test [13] relates to SNB-19.
For test [14], the system named is HOP-62.
In test [15] the test system is OVCAR-3.
The subject of test [16] is UACC-257.
Test [17] relates to OVCAR-4.
Test [18] has as its system MOLT-4.
Test [19] deals with SK-MEL-28.
Test [20] has as its system HCT-15.

Regarding `COC(=O)[C@@H]1C[C@@]23CCCN4CC[C@@]5(c6cccc(OC)c6N(C=O)[C@]15CC2)[C@@H]43`, the GI50 in test [1], in [2], in test [3], in [4], in [5] and in test [6] was > 100 µM (inactive) in each case. Moreover, the GI50 in [7], in [8], in [9], in test [10], in [11] and in test [12] was > 100 µM (inactive) each time. The GI50 in test [13], in test [14], in test [15], in test [16], in test [17] and in test [18] was > 100 µM (inactive) throughout. Moreover, the values for the GI50 in test [19] and in [20] were > 100 µM (inactive) and > 100 µM, respectively.

With `C=C(CC)C[C@@H]1C[C@]2(C(=O)OC)c3[nH]c4ccccc4c3CCN2C1=O`, the GI50 in [1] is 14.7 µM (inactive); in test [2], 20.3 µM (inactive); in test [3], 16 µM (inactive); in [4] it was 21.1 µM (inactive); in test [5], 29.4 µM (inactive); in [6], 21 µM (inactive). For the same compound, the GI50 is 19.5 µM (inactive) in test [7]; 20 µM (inactive) in test [8]; 16.9 µM (inactive) in test [9]; 20.7 µM (inactive) in test [10]; 14.7 µM (inactive) in [11]; 23.4 µM (inactive) in test [12]. Also, the GI50 in test [13] was 17.8 µM (inactive); in test [14], 17.9 µM (inactive); in test [15], 14.1 µM (inactive); in test [16], 19.2 µM (inactive); in test [17] it was 37.8 µM (inactive); in [18], 23 µM (inactive). Also, the figures for the GI50 in test [19] and in test [20] were 19.5 µM (inactive) and 16.6 µM, respectively.

On to `C=C1C(=O)OC2CC(C)C(C(CC(C)=O)OC(C)=O)=CCC12` (stereo not given), for which the GI50 was 23.8 µM (inactive) in test [1]; 13.3 µM (inactive) in test [2]; 2.74 µM (inactive) in test [3]; 15.8 µM (inactive) in [4]; 2.88 µM (inactive) in [5]; 17.6 µM (inactive) in test [6]. Further, the GI50 in [7] is 8.41 µM (inactive); in [8], 4.27 µM (inactive); in [9] it was 11.7 µM (inactive); in test [10] it was 4.74 µM (inactive); in test [11], 28.2 µM (inactive); in test [12], 3.25 µM (inactive). The GI50 was 36.6 µM (inactive) in test [13]; 21 µM (inactive) in [14]; 7.06 µM (inactive) in test [15]; 16.5 µM (inactive) in test [16]; 17 µM (inactive) in [17]; 4.07 µM (inactive) in test [18]. In addition, the GI50 in [19] is 8.24 µM (inactive); in test [20], 2.75 µM.

`COc1ccc(N2C(=O)C3c4[nH]c5ccc(Br)cc5c4C4CCC(C(C)(C)C)CC4C3C2=O)cc1` (stereo not given): the GI50 in test [1], in test [2], in test [3], in [4], in [5] and in [6] was > 100 µM (inactive) each time. Further, the GI50 in [7], in [8], in test [9], in test [10], in [11] and in test [12] was > 100 µM (inactive) in each case. Also, the GI50 in test [13], in [14], in [15], in test [16], in test [17] and in test [18] was > 100 µM (inactive) throughout. Moreover, the GI50 was > 100 µM (inactive) in [19] and > 100 µM in [20].

For `COc1ccc(C[C@@H](C(=O)N[C@@H](C)C(N)=O)N(C)C(=O)[C@@H]2CCCN2C(=O)[C@H](CC(C)C)NC(=O)C(C)NC(=O)OCc2ccccc2)cc1` (stereo not given in full) (Cbz-[ξA]LP[NMeY](Me)A-NH2), the GI50 in test [1] was > 100 µM (inactive); in [2] it was 51.8 µM (inactive); in test [3] it was > 100 µM (inactive); in test [4], > 100 µM (inactive); in test [5] it was > 100 µM (inactive); in test [6] it was > 100 µM (inactive). The GI50 in [7] is > 100 µM (inactive); in test [8], > 100 µM (inactive); in [9], 73.1 µM (inactive); in [10], > 100 µM (inactive); in test [11] it was > 100 µM (inactive); in test [12] it was > 100 µM (inactive). In addition, the GI50 in test [13] is > 100 µM (inactive); in [14] it was > 100 µM (inactive); in test [15] it was > 100 µM (inactive); in [16], > 10 µM (inactive); in [17], > 100 µM (inactive); in test [18] it was 35.5 µM (inactive). For the same compound, the GI50 in [19] is > 100 µM (inactive); in test [20], > 100 µM.

As for `COC(=O)C1CCC(=O)NCCCCC(NC(=O)C(N)CC(=O)O)C(=O)N1` (stereo not drawn) (H-Asp-Lys-Glu-OMe; lactam 2-3; configuration not given here), the GI50 in test [1] was > 100 µM (inactive); in test [2], > 100 µM (inactive); in [3], 71.9 µM (inactive); in test [4], > 100 µM (inactive); in test [5], > 100 µM (inactive); in test [6] it was > 100 µM (inactive). The GI50 in test [7] is > 100 µM (inactive); in test [8] it was > 100 µM (inactive); in test [9], 28.2 µM (inactive); in [10] it was 62.7 µM (inactive); in test [11] it was > 100 µM (inactive); in [12] it was 29.4 µM (inactive). Besides, the GI50 in test [13], in [14], in test [15], in [16], in [17] and in test [18] was > 100 µM (inactive) in each case. Moreover, the results for the GI50 in test [19] and in test [20] were > 100 µM (inactive) and > 100 µM, respectively.

With `CCC(C)C(NC(=O)C(NC(=O)C(CC(N)=O)NC(=O)CN)C(C)O)C(=O)NC(C(=O)NC(C)C(=O)NC(C(=O)NC(CCC(=O)O)C(=O)NC(CC(C)C)C(=O)NC(CC(=O)O)C(=O)NC(C(=O)NC(Cc1ccc(O)cc1)C(=O)N1CCCC1C(=O)O)C(C)O)C(C)C)C(C)C` (stereo not given) (H-GNTIVAVELDTYP-OH; configuration not given here), the GI50 in [1], in [2], in test [3], in test [4], in test [5] and in test [6] was > 50 µM (inactive) in each case. The GI50 in [7], in test [8], in [9], in [10], in test [11] and in test [12] was > 50 µM (inactive) throughout. The GI50 in [13], in test [14], in test [15], in [16], in [17] and in test [18] was > 50 µM (inactive) each time. Also, the figures for the GI50 in [19] and in [20] were > 50 µM (inactive) and > 50 µM, respectively.

For the origin of these results see ChEMBL document CHEMBL1201862, “PubChem BioAssay data set” (2004).
